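Dose response: 5 concentrations. Exposure: 48 h. Format: 96-well plates. Endpoint: linear interpolation; highest concentration if not reached. Abbreviation: GI50, concentration required for 50% inhibition of growth. At the TGI there is no net growth.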 Where a SMILES comes first, the peptide text is derived from it. [ ]: non-standard residue; d: D form. The star is where a group is joined. Ac5c = NC1(C(=O)O)CCCC1; Boc = CC(C)(C)OC(=O)*; tBu = CC(C)(C)*
Experiments:
Experiment in all cases: NCI anticancer screen, dose series, 48 h; in the data active means GI50 below about 0.43 µM; inactive means the rest
SF-539 CNS = tested on: SF-539 CNS
UACC-62 melanoma = tested on: UACC-62 melanoma
RXF 393 renal = tested on: RXF 393 renal
CCRF-CEM leukemia = tested on: CCRF-CEM leukemia
UO-31 renal = tested on: UO-31 renal
HL-60(TB) leukemia = tested on: HL-60(TB) leukemia
786-0 renal = tested on: 786-0 renal
SR leukemia = tested on: SR leukemia
K-562 leukemia = tested on: K-562 leukemia
A549 NSCLC = tested on: A549 NSCLC
NCI-H23 lung = tested on: NCI-H23 lung
TK-10 renal = tested on: TK-10 renal
HCT-116 colon = tested on: HCT-116 colon
MCF7 breast = tested on: MCF7 breast
CAKI-1 renal = tested on: CAKI-1 renal
MOLT-4 leukemia = tested on: MOLT-4 leukemia
A498 renal = tested on: A498 renal
OVCAR-8 ovarian = tested on: OVCAR-8 ovarian
SNB-75 CNS = tested on: SNB-75 CNS
SNB-19 CNS = tested on: SNB-19 CNS
NCI-H460 lung = tested on: NCI-H460 lung
HCC-2998 colon = tested on: HCC-2998 colon
HT29 colon = tested on: HT29 colon
SK-MEL-5 melanoma = tested on: SK-MEL-5 melanoma
SK-MEL-28 melanoma = tested on: SK-MEL-28 melanoma
DU-145 prostate = tested on: DU-145 prostate
ACHN renal = tested on: ACHN renal
HOP-62 NSCLC = tested on: HOP-62 NSCLC
BT-549 breast = tested on: BT-549 breast
OVCAR-5 ovarian = tested on: OVCAR-5 ovarian
LOX IMVI melanoma = tested on: LOX IMVI melanoma
RPMI-8226 leukemia = tested on: RPMI-8226 leukemia
U251 CNS = tested on: U251 CNS
SF-268 CNS = tested on: SF-268 CNS
MALME-3M melanoma = tested on: MALME-3M melanoma
SK-OV-3 ovarian = tested on: SK-OV-3 ovarian
IGROV1 ovarian = tested on: IGROV1 ovarian
OVCAR-4 ovarian = tested on: OVCAR-4 ovarian
M14 melanoma = tested on: M14 melanoma
COLO 205 colon = tested on: COLO 205 colon
NCI/ADR-RES ovarian = tested on: NCI/ADR-RES ovarian
SW-620 colon = tested on: SW-620 colon
T-47D breast = tested on: T-47D breast
SK-MEL-2 melanoma = tested on: SK-MEL-2 melanoma
HOP-92 NSCLC = tested on: HOP-92 NSCLC
MDA-MB-435 = tested on: MDA-MB-435
UACC-257 melanoma = tested on: UACC-257 melanoma
NCI-H226 lung = tested on: NCI-H226 lung

O=c1[nH]c(=O)n(C2C[C@@H](O)[C@@H](CO)O2)cc1F (some centres not stated)
> 60.8 µM: TGI (SF-539 CNS)
30.3 µM: TGI (UO-31 renal)
> 38.1 µM: TGI (SR leukemia)
956 nM: TGI (HOP-62 NSCLC)
13.3 µM: TGI (RXF 393 renal)
active: GI50 (CCRF-CEM leukemia) 19.8 nM | GI50 (SR leukemia) 184 nM | GI50 (K-562 leukemia) 156 nM | GI50 (HCT-116 colon) 28.9 nM | GI50 (MCF7 breast) < 10 nM | GI50 (MOLT-4 leukemia) 37.5 nM
inactive: GI50 (HL-60(TB) leukemia) 482 nM | GI50 (SK-MEL-28 melanoma) 433 nM | GI50 (OVCAR-5 ovarian) 8.4 µM
> 100 µM: TGI (UACC-62 melanoma) | TGI (CCRF-CEM leukemia) | TGI (HL-60(TB) leukemia) | TGI (786-0 renal) | TGI (K-562 leukemia) | TGI (A549 NSCLC) | TGI (NCI-H23 lung) | TGI (TK-10 renal) | TGI (HCT-116 colon) | TGI (MCF7 breast) | TGI (CAKI-1 renal) | TGI (OVCAR-8 ovarian) | TGI (SNB-19 CNS) | TGI (HT29 colon) | TGI (SK-MEL-28 melanoma) | TGI (DU-145 prostate) | TGI (ACHN renal) | TGI (BT-549 breast) | TGI (OVCAR-5 ovarian) | TGI (LOX IMVI melanoma)
7.48 µM: TGI (A498 renal)
385 nM: TGI (SK-MEL-5 melanoma)
> 21.4 µM: TGI (SNB-75 CNS)
9.8 µM: TGI (NCI-H460 lung)
4.45 µM: TGI (HCC-2998 colon)

C=CCNc1nc2c(N)ncnc2s1
> 10 µM: TGI (RPMI-8226 leukemia) | TGI (U251 CNS) | TGI (UACC-62 melanoma) | TGI (RXF 393 renal) | TGI (CCRF-CEM leukemia) | TGI (SF-268 CNS) | TGI (HL-60(TB) leukemia) | TGI (786-0 renal) | TGI (MALME-3M melanoma) | TGI (SR leukemia) | TGI (K-562 leukemia) | TGI (A549 NSCLC) | TGI (NCI-H23 lung) | TGI (SK-OV-3 ovarian) | TGI (IGROV1 ovarian) | TGI (OVCAR-4 ovarian) | TGI (MCF7 breast) | TGI (CAKI-1 renal) | TGI (M14 melanoma) | TGI (MOLT-4 leukemia) | TGI (COLO 205 colon) | TGI (NCI/ADR-RES ovarian) | TGI (SNB-75 CNS) | TGI (SW-620 colon) | TGI (NCI-H460 lung) | TGI (T-47D breast) | TGI (SK-MEL-28 melanoma) | TGI (ACHN renal) | TGI (SK-MEL-2 melanoma) | TGI (HOP-92 NSCLC) | TGI (OVCAR-5 ovarian) | TGI (MDA-MB-435)
> 10000 nM: TGI (SK-MEL-5 melanoma) | TGI (HOP-62 NSCLC)

CC(OC(C)(C)C)C1NC(=O)C(CCCCNC(=O)OC(C)(C)C)NC(=O)C(Cc2c[nH]c3ccccc23)NC(=O)C(Cc2ccccc2)NC(=O)C2(CCCC2)NC(=O)C(Cc2ccccc2)NC1=O (configuration not stated) (cyclo([Ac5c]FWK(Boc)T(tBu)F); configuration not given here)
> 100 µM: TGI (NCI-H23 lung)
46.6 µM: TGI (UACC-257 melanoma)
47.6 µM: TGI (NCI-H226 lung)
67.1 µM: TGI (HOP-92 NSCLC)
